Data reported in US12553889B2, “Small molecules targeting the intrinsically disordered structural ensemble of α-synuclein protect against diverse α-synuclein mediated dysfunctions” (The Regents of the University of California, priority 2019, dated 2026).

What was measured:
[1] = system: BACE, GST and CAII control proteins; assay: Biacore 4000 SPR binding specificity (pb-index, control proteins); conditions: 100 μM
Method: The binding specificity of 576755 and its analogues was assessed by testing their ability to bind to αSyn versus a set of control proteins: Beta-Site Amyloid Precursor Protein Cleaving Enzyme 1 (BACE), Glutathione-S transferase (GST) and Carbonic Anhydrase (CAII). The binding data was merged into a pb-index, as discussed in more detail below. Compounds were tested at 100 μM using the Biacore 4000 instrument as described below. […] The percent RMax (% Rmax) for αSyn and the average % Rmax for the control proteins (pb-index) were calculated described below. […] The remaining 576755-analogues show no reaction with the control proteins and thus have improved specificity of binding.
Preparation of off-target protein sensor chips. […]
(§1) Surface Plasmon Resonance Measurements. […] Time-dependent binding curves were monitored simultaneously. […] The time-dependent binding curves were monitored simultaneously. […]
SPR Data Evaluation. The obtained data were quality controlled and evaluated using the manufacturers Evaluation Software as described previously (Regnström, K. et al. (2013)). Data were exported into Microsoft Excel and further analyzed as follows: The binding levels of running buffer injections were used to calculate the background noise level (>three-fold σ). All binding level data was calculated by subtracting the background noise level and adjustment to molecular weight (% Rmax). […]

[2] = molecular target: αSyn (Homo sapiens, UniProt P37840); assay: Biacore T200 SPR kinetics and affinity to tethered αSyn; format: binding; set-up: made in house; host or cells: E. coli
Method: RU (resonance units) from the Biacore machine are plotted against time. […] 576755 was injected at six concentrations in two-fold dilutions starting at 200 μM in running buffer containing 25 mM TRIS pH 7.4, 100 mM NaCl, 1% DMSO. […] All data were fitted to 1:1 binding model using the T200 software evaluation.
A Biacore Surface Plasmon Resonance (SPR) method was developed to detect binding to αSyn both in a high throughput manner (Biacore 4000 machine) and in a sensitive format (Biacore T200). A dual capture method was developed in which αSyn is captured both by an antibody to the central region of αSyn and by immobilized N-termal His-tagged αSyn. […]
as §1
Affinity constants were determined using the Biacore T200 evaluation software V.1 by curve fitting using a 1:1 binding model. […] The rate of complex formation during fragment injection is calculated according to the equation (2): dR/dt=kaC(Rmax−R)−kdR (1:1 interaction), where R is the SPR signal in response units (RU), C is the concentration of analyte, Rmax is the maximum analyte binding capacity in RU, and dR/dt is the rate of SPR signal change. […]

Kd ([2]; six concentrations in two-fold dilutions from 200 μM, 25 mM TRIS pH 7.4, 100 mM NaCl, 1% DMSO, read-out: binding affinity for αSyn (kinetics fits, 1:1 binding model)): 73 µM
Structure (SMILES): CNC(=O)c1cc(O)ccc1N [Compound 576755, 2-amino-5-hydroxy-N-methylbenzamide]
binding to control proteins (pb-index versus % Rmax of αSyn binding) [1]: some non-specific binding to the control proteins | binding behaviour (Biacore traces, off rates) ([2]; tethered αSyn): well-behaved, robust and reversible binding
